Experimental data: ChEMBL document CHEMBL1129488, “Controlled modification of acidity in cholecystokinin B receptor antagonists: N-(1,4-benzodiazepin-3-yl)-N'-[3-(tetrazol-5-ylamino) phenyl]ureas” (J Med Chem, 1996)

What was measured:
[1] = buffer, pH 0
Description: The solubility is evaluated at a pH 0f 7.4

physchem [2] = experiment: physchem
Description: pKa value is evaluated by nonlinear regression analysis of pH-dependent partition measurements.

physchem [3] = conditions: buffer, pH 7.4
Description: Lipophilicity was measured at pH 7.4

[4] = pKa value for the compound is determined by potentiometric titration.; assay type: physicochemical
[5] = biological target: T1, Cholecystokinin receptor type A (Rattus norvegicus, UniProt P30551)
T1 sequence (P30551 whole entry): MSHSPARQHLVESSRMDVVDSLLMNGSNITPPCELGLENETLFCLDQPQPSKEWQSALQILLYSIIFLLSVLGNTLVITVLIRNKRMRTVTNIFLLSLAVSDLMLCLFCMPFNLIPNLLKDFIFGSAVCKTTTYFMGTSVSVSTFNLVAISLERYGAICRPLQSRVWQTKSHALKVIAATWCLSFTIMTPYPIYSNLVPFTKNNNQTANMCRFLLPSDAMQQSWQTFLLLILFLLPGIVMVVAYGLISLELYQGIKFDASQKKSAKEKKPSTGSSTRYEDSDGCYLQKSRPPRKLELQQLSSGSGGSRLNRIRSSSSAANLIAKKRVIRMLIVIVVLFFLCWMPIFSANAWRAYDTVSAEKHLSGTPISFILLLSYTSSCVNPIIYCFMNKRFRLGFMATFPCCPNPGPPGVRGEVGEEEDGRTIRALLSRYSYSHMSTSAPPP
Description: Inhibition of [125 I]BH CCK-8S binding to Cholecystokinin type A receptor in pancreatic tissue

[6] = pKa value is evaluated by nonlinear regression analysis of pH-dependent partition measurements; pKa could not be reliably determined due to poor solubility at low pHs; assay type: physicochemical

Compound | pKa [4] | S [1] [µg/mL] | logD (physchem [3]) | IC50 [5] [µM] | also measured
CN1C(=O)[C@H](NC(=O)Nc2ccc3c(c2)N(c2nn[nH]n2)CC3)N=C(c2ccccc2)c2ccccc21 | – | 0.87 | 1.38 | – | pKa (physchem [2]): 4.8
Cc1ccc(NC(=O)N[C@@H]2N=C(C3CCCCC3)c3ccccc3N(C)C2=O)cc1N(C)c1nn[nH]n1 | – | 0.49 | – | 1.6 | –
CN1C(=O)[C@H](NC(=O)Nc2cccc(CNc3nn[nH]n3)c2)N=C(c2ccccc2)c2ccccc21 | – | 0.02 | 1.47 | 3 | pKa (physchem [2]): 5.9
CN1C(=O)[C@H](NC(=O)Nc2cccc(Nc3nn[nH]n3)c2)N=C(c2ccccc2)c2ccccc21 | – | 0.1 | 0.89 | 3 | pKa (physchem [2]): 5.1
Cc1ccc(NC(=O)N[C@@H]2N=C(c3ccccc3)c3ccccc3N(C)C2=O)cc1Nc1nn[nH]n1 | – | 0.88 | 1.37 | 3 | pKa (physchem [2]): 1.37
CN1C(=O)[C@H](NC(=O)Nc2cccc(N(C)c3nn[nH]n3)c2)N=C(C2CCCCC2)c2ccccc21 | – | 60 | – | – | –
Cc1ccc(NC(=O)N[C@@H]2N=C(C3CCCCC3)c3ccccc3N(C)C2=O)cc1Nc1nn[nH]n1 | – | 57 | – | – | –
CN1C(=O)[C@H](NC(=O)Nc2cccc(CNc3nn[nH]n3)c2)N=C(C2CCCCC2)c2ccccc21 | – | 3.7 | – | – | –
CN1C(=O)[C@H](NC(=O)Nc2cccc(N(C)c3nn[nH]n3)c2)N=C(c2ccccc2)c2ccccc21 | – | 0.16 | 1.14 | 3 | pKa [6]: Insoluble
Cc1cccc(NC(=O)N[C@@H]2N=C(c3ccccc3)c3ccccc3N(C)C2=O)c1 [L-365260] | – | < 0.002 | – | – | –

Second part, led by results:

pKa [4] | Compound | S [1] [µg/mL] | logD (physchem [3]) | IC50 [5] [µM] | also measured
5.53 | O=[N+]([O-])c1ccc(CNc2nn[nH]n2)cc1 | – | – | – | –
4.02 | O=[N+]([O-])c1ccc2c(c1)CCN2c1nn[nH]n1 | – | – | – | –
4.23 | O=[N+]([O-])c1ccc(Nc2nn[nH]n2)cc1 | – | – | – | –
4.46 | CN(c1ccc([N+](=O)[O-])cc1)c1nn[nH]n1 | – | – | – | –
5.02 | Cc1cc([N+](=O)[O-])ccc1N(C)c1nn[nH]n1 | – | – | – | –
4.46 | Cc1cc([N+](=O)[O-])ccc1Nc1nn[nH]n1 | – | – | – | –
